Reference: patent US4141991A, “Ferrocene derivatives” (Hoechst Aktiengesellschaft, priority 1976, dated 1979)

Tests used:
liver ferritin [1] = assay: Analysis of the ferritin from rat livers (quantitative determination of ferritin protein and its iron content); format: in vivo; conditions: for Ratio of iron to protein: rat liver ferritin, two successive daily doses corresponding to 52.5 mg Fe/kg; for Ratio of iron to protein / Ferritin-iron / Ferritin-protein: average values from 6 animals; for Ferritin-iron / Ferritin-protein: two successive daily doses corresponding to 52.5 mg Fe/kg (table; text 52.2), 24 hours after 2nd administration
Description: 24 hours after the 2nd administration the animals were killed. […] For this, ferritin is isolated from the liver by thermal denaturation, ammonium sulfate fractionation and gel filtration, and the protein is determined by amino acid analysis and the iron content by atom absorption.

rats = assay: Acute toxicity (LD50) in rats
mice = assay: Acute toxicity (LD50) in mice
liver ferritin [2] = assay: Histological comparison test of liver ferritin (Berlin-blue reaction); format: in vivo; conditions: 6 male rats and 6 male mice; 2 doses corresponding to 52.2 mg Fe/kg; 24 hours after 2nd administration
Description: After oral administration, sideropenia resulting from by-passing the normal regulating mechanism in the intestine for ionic iron, is quickly compensated. Thus, the results of an iron-deficient diet for rats and mice, such as reduced body weight, decrease of hemoglobin, of the hematocrit, of the serum iron and of the number of erythrocytes, is fully compensated by the administration once of a dose of one of the compounds according to the invention corresponding to 2 mg of iron per animal. The compounds according to the invention are resorbed well orally, the excretion of unchanged substance in urine usually being less than 1%. The compounds are distinguished by a distinct nontoxicity, the LD50 of 4-ferrocenoyl-cyclohexene thus amounting to 2000 mg/kg in mice and 3,000 mg/kg in rats. As can be shown by biochemical determination of the ferritin protein and its degree of iron saturation, the compounds are completely metabolised in the liver, that is, the iron is released and incorporated in the storage form that can be used to form hemoglobin, that is in liver ferritin, and in the case of an excess of added substance, in ferritin and in hemosiderin. These discoveries are supported by histological comparison tests, in which the increase of liver ferritin is recognisable in a Berlin-blue reaction in the form of a uniform blue shading of the cytoplasma of the liver cells, and any hemosiderin that may have formed is recognisable in the form of fine blue grains.
The compounds were administered to 6 male rats and 6 male mice on two successive days in individual doses corresponding to an iron content of 52.2 mg Fe per kg of animal. 24 hours after the 2nd administration the animals were killed. […] The quantitative determination of the ferritin protein and its iron content (table) confirm these findings. For this, ferritin is isolated from the liver by thermal denaturation, ammonium sulfate fractionation and gel filtration, and the protein is determined by amino acid analysis and the iron content by atom absorption.

[3] = test system: ability to utilize the iron; conditions: among 2a-d, according to details in the literature; cited from earlier work

Row | Compound | Ratio of iron to protein (liver ferritin [1]) | Ferritin-iron (liver ferritin [1]; rat liver) [μg/g tissue] | Ferritin-protein (liver ferritin [1]; rat liver) [μg/g tissue] | ferritin protein and its iron content in comparison with the known compounds 2a-d (liver ferritin [1]; rat liver, after administration, from the table) | LD50 (rats) | LD50 (mice) [mg/kg] | hemosiderin particles, histologically (liver ferritin [2]) | histological increase of the liver ferritin (liver ferritin [2]) | ability to utilize the iron [3]
1 | O=C([c-]1cccc1)C1CCCCC1.[Fe+2].c1cc[cH-]c1 [Example 2a, hexahydrobenzoyl ferrocene] | 0.43 | 209 | 475 | – | – | – | – | – | –
2 | O=C([c-]1cccc1)C1CC=CCC1.[Fe+2].c1cc[cH-]c1 (centres unmarked) [Example 1, 4-Ferrocenoyl-cyclohexene] | 1.19 | 1133 | 950 | clearly increased more markedly | 3,000 mg/kg | 2000 | individual hemosiderin particles are observed | in comparison with 2a and 2b exhibits a substantially greater increase of the liver ferritin | –
3 | 1,1'-di-hexahydrobenzoyl ferrocene [Example 2c] | 0.42 | 94 | 224 | – | – | – | – | do not cause any histologically recognisable increase of the liver ferritin | –
4 | 1,1'-di-(3,5,5-trimethyl-hexanoyl)-ferrocene [Example 2b] | 0.26 | 148 | 567 | – | – | – | – | – | –
5 | 1,1'-di-neopentyl ferrocene [Example 2d] | 0.38 | 61 | 130 | – | – | – | – | do not cause any histologically recognisable increase of the liver ferritin | the best, especially regarding its ability to utilize the iron
